Laboratory results: patent US10869931B2, “Polyethylene glycol-modified angiogenesis inhibitor HM-1 and application thereof” (NANJING ANJI BIOLOGICAL TECHNOLOGY CO.,LTD, priority 2016, dated 2020)
Marks after values point to notes of the source that are not given here. Where no end group is shown, it is not given here.

Tests used:
[1] = system: collagen induced arthritis (CIA) in DBA/1 mice; test: Collagen-induced mouse arthritis (CIA) model; type: in vivo; conditions: CIA DBA/1 mice; for Clinical score: maximum score 16
[2] = system: Pancreatic cancer tumor cells; test: MTT proliferation inhibition, pancreatic cancer cells; type: cell-based, human; parameters: concentration or dose not given beside the values; conditions: 48 h
Method: (§1) The activity of mPEG-HM-1 to inhibit the growth of various tumor cells was examined by MTT assay. The tumor cells were cultured to a concentration of 90% or more in a 37° C., 5% CO2 incubator and collected by trypsinization. The cells were resuspended in the culture medium and counted under a microscope to adjust the cell concentration to 2×10^4 cells/mL, the cell suspension was inoculated into a 96-well plate at 100 μL/well and incubated overnight at 37° C. in a 5% CO2 incubator. mPEG-HM-1 was diluted with the culture solution to each predetermined concentration. Docetaxel is diluted to the final concentration with the culture medium. After the cells were fully attached, each dilution was added to a 96-well plate (100 μL/well). The mPEG-HM-1 dilution was added as a drug-administered group, and docetaxel was added as a positive control group, and a culture solution without any drug was used as a negative control group. Incubate for 48 h at 37° C. in a 5% CO2 incubator. 5 mg/mL of MTT was added to a 96-well plate at 20 μL per well, and incubation was continued for 4 hours. The medium was aspirated, dissolved in 150 μL of DMSO per well, and gently mixed by shaking for 10 min. The absorbance was measured at a measurement wavelength of 570 nm and a reference wavelength of 630 nm using a microplate reader, and the rate of growth inhibition (proliferation inhibition, PI) was calculated. The formula is as follows: PI (%)=1−administration group/negative group
(§2) The test was repeated 3 times independently, and the results obtained by the test were expressed as mean±SD, and the test results are shown in Table 15 to Table 18.

[3] = system: neovascularization in rat model of premature retinopathy; test: Fluctuating-oxygen rat model of premature retinopathy (endothelial nuclei count); type: in vivo; conditions: for Cell nuclei count: day 14
Method: A fluctuating oxygen-induced animal model was used to randomly divide the newborn rats that were naturally delivered on the same day (within 12 hours) into three groups: the oxygenated model group, the oxygenated treatment group, and the normal control group. The oxygenated model group was subdivided into three subgroup models and along with the oxygenated treatment group was placed in a semi-closed oxygen chamber made of plexiglass. The chamber was connected to medical oxygen, and the oxygen analyzer was adjusted to a concentration of 80%±2%. After 24 hours, Nitrogen gas was introduced into the oxygen chamber, and the oxygen concentration was adjusted to 10%±2% and maintained for 24 h. This process was repeated, so that the oxygen concentration in the oxygen chamber is switched between 80% and 10% every 24 hours, and then transferred to the air for 7 days. The oxygen concentration was monitored 8 times a day, and the ambient temperature in the control cabin was 23° C.±2° C. Bedding change, adding food, changing water and replacing mother rats were performed once a day. The normal control group was placed in an animal facility environment. […] The oxygenated therapeutic components were divided into four subgroups, and on the 7th day of modeling, mPEG-SC-HM-1, mPEG2-NHS-HM-1, mPEG-ALD10k-HM-1, and mPEG-bALD-HM-1 were respectively administered by intravitreal injection. Only normal saline was administered to the oxygen model group and the control group. The administrations continued for 1 week. […] After immersion in wax, serial section at thickness of 4 μm was performed, wherein the sections were kept away from the optic disc. The sections are parallel to the sagittal plane of the cornea to the optic disc. Ten sections per eyeball were randomly selected from each eyeball to be stained with hematoxylin and eosin, and the number of vascular endothelial cells that broke through the retinal inner membrane was counted (only the vascular endothelial nucleus closely related to the inner retinal membrane was counted), and the average numbers of endothelial cells per eyeball per slice was counted.

Hemangioma tumor cells = test: MTT proliferation inhibition, hemangioma cells; type: cell-based, human; parameters: concentration or dose not given beside the values; conditions: 48 h
Method: as §1, §2

Liver cancer tumor cells = test: MTT proliferation inhibition, liver cancer cells; type: cell-based, human; parameters: concentration or dose not given beside the values; conditions: 48 h
Method: as §1, §2

sarcoma tumor cells = test: MTT proliferation inhibition, sarcoma cells; type: cell-based, human; parameters: concentration or dose not given beside the values; conditions: 48 h
Method: as §1, §2

[4] = system: Thyroid cancer tumor cells; test: MTT proliferation inhibition, thyroid cancer cells; type: cell-based, human; parameters: concentration or dose not given beside the values; conditions: 48 h
Method: as §1, §2

[5] = system: Uterine cancer tumor cells; test: MTT proliferation inhibition, uterine cancer cells; type: cell-based, human; parameters: concentration or dose not given beside the values; conditions: 48 h
Method: as §1, §2

[6] = system: Colorectal cancer tumor cells; test: MTT proliferation inhibition, colorectal cancer cells; type: cell-based, human; parameters: concentration or dose not given beside the values; conditions: 48 h
Method: as §1, §2

[7] = system: retinal neovascular clusters in OIR C57/B16 mice; test: Retinal blood vessels in OIR mice; type: in vivo, mouse; conditions: for Neovascular clusters area: retina evaluated on day 17; for Inhibition rate: neovascular clusters area vs control, day 17
Excerpt: Establishment of the OIR model: Exposure of young mouse and their mothers to 75% hyperoxic environment from day 7 to day 12 after birth of C57/B16 mice caused rapid disappearance of capillaries in the central retina. Upon returning to the indoor air on the 12th day, the retinal blood vessels, upon exposing to hyperoxia, rapidly disappeared, causing extensive abnormal neovascularization, and the central portion of the retina remained largely avascular for a long time. After the blood vessels disappeared completely, on the 13th day, physiological saline (negative control group), mPEG-SC-HM-1, mPEG2-NHS-HM-1, mPEG-ALD10k-HM-1, and mPEG-bALD-HM-1, were administered by intravitreal injection and retinal vessels were evaluated on day 17 (to label unclosed vessels, […] of Texas Red-labeled tomato lectin was injected into the left ventricle and circulated for 5 min).

[8] = 40 mg/kg subcutaneous from day 30 of modeling
[9] = 10 mg/kg subcutaneous from day 30 of modeling
[10] = 25 μg intravitreal for 1 week from day 7, vascular endothelial nuclei breaking through inner retinal membrane per slice
[11] = 25 μg intravitreal injection on day 13
[12] = 80 mg/kg subcutaneous from day 30 of modeling
[13] = 200 μg intravitreal for 1 week from day 7, vascular endothelial nuclei per slice
[14] = 200 μg intravitreal injection on day 13
[15] = 20 mg/kg subcutaneous from day 30 of modeling

Row | Substance | rate of growth inhibition [2] [%] | rate of growth inhibition (Hemangioma tumor cells) [%] | rate of growth inhibition (Liver cancer tumor cells) [%] | rate of growth inhibition (sarcoma tumor cells) [%] | rate of growth inhibition [4] [%] | rate of growth inhibition [5] [%] | rate of growth inhibition [6] [%] | Joint swelling [1, 12] [mm] | Left and right paw swelling [1, 12] [mm] | Clinical score [1, 12] | Cell nuclei count [3, 13] | Neovascular clusters area [7, 14] [mm^2] | Inhibition rate ([7]; 200 μg intravitreal) | also measured
1 | mPEG-ALD20k-Arg-Gly-Ala-Asp-Arg-Ala-Gly-Gly-Gly-Gly-Arg-Gly-Asp ({mPEG‑ALD 20 kDa}-RGADRAGGGGRGD) [mPEG-ALD20k-HM-1] | 70.65 ± 20.29 | 53.30 ± 16.06 | 65.31 ± 18.18 | 50.96 ± 11.68 | 50.35 ± 15.23 | 89.37 ± 23.47 | 72.43 ± 19.32 |  |  |  |  |  |  | Joint swelling [1, 8]: 0.72 ± 0.16 mm; Left and right paw swelling [1, 8]: 0.74 ± 0.13 mm; Clinical score [1, 8]: 8.66 ± 1.38; Cell nuclei count ([3]; 100 μg intravitreal for 1 week from day 7, vascular endothelial nuclei per slice): 7.036 ± 1.315; vascular endothelial cell nuclei count ([3]; neonatal rats, 100 μg intravitreal, 1 week): 7.036±1.315; Neovascular clusters area ([7]; 100 μg intravitreal injection on day 13): 0.095 ± 0.009 mm^2; Inhibition rate ([7]; 100 μg intravitreal): 57.03%**
2 | mPEG2-NHS5k-Arg-Gly-Ala-Asp-Arg-Ala-Gly-Gly-Gly-Gly-Arg-Gly-Asp ({mPEG2‑NHS 5 kDa}-RGADRAGGGGRGD) [mPEG2-NHS5k-HM-1] | 46.58 ± 13.12 | 42.78 ± 12.50 | 50.92 ± 11.66 | 38.41 ± 11.10 | 36.23 ± 12.15 | 55.20 ± 15.63 | 52.37 ± 12.24 |  |  |  |  |  |  | Joint swelling [1, 9]: 0.78 ± 0.12 mm; Left and right paw swelling [1, 9]: 0.76 ± 0.11 mm; Clinical score [1, 9]: 9.01 ± 1.28; Cell nuclei count [3, 10]: 9.212 ± 3.134; Neovascular clusters area [7, 11]: 0.119 ± 0.007 mm^2; Inhibition rate ([7]; 25 μg intravitreal): 46.35%*
3 | mPEG-bALD40k-Arg-Gly-Ala-Asp-Arg-Ala-Gly-Gly-Gly-Gly-Arg-Gly-Asp ({mPEG‑bALD 40 kDa}-RGADRAGGGGRGD) [mPEG-bALD40k-HM-1] | 62.85 ± 18.74 | 48.69 ± 12.72 | 58.72 ± 10.80 | 47.90 ± 10.70 | 45.53 ± 12.98 | 70.51 ± 20.22 | 66.90 ± 16.27 | 0.78 ± 0.16 | 0.79 ± 0.13 | 9.01 ± 1.45 | 8.539 ± 2.218 | 0.110 ± 0.012 | 50.31%** | 
4 | mPEG-ALD40k-Arg-Gly-Ala-Asp-Arg-Ala-Gly-Gly-Gly-Gly-Arg-Gly-Asp ({mPEG‑ALD 40 kDa}-RGADRAGGGGRGD) [mPEG-ALD40k-HM-1] | 65.31 ± 19.81 | 50.67 ± 14.02 | 60.78 ± 10.88 | 45.93 ± 10.77 | 49.03 ± 13.08 | 82.59 ± 21.37 | 70.92 ± 16.52 | 0.77 ± 0.14 | 0.79 ± 0.12 | 8.97 ± 1.42 | 8.673 ± 2.756 | 0.106 ± 0.010 | 52.02%** | 
5 | mPEG2-NHS40k-Arg-Gly-Ala-Asp-Arg-Ala-Gly-Gly-Gly-Gly-Arg-Gly-Asp ({mPEG2‑NHS 40 kDa}-RGADRAGGGGRGD) [mPEG2-NHS40k-HM-1] | 51.49 ± 16.28 | 50.64 ± 15.89 | 53.77 ± 13.64 | 46.46 ± 11.54 | 45.19 ± 14.07 | 62.25 ± 20.39 | 54.40 ± 18.29 | 0.76 ± 0.14 | 0.79 ± 0.15 | 8.98 ± 1.30 | 8.495 ± 3.036 | 0.120 ± 0.008 | 45.92%* | 
6 | mPEG-SC5k-Arg-Gly-Ala-Asp-Arg-Ala-Gly-Gly-Gly-Gly-Arg-Gly-Asp ({mPEG‑SC 5 kDa}-RGADRAGGGGRGD) [mPEG-SC5k-HM-1] | 51.37 ± 16.23 | 43.68 ± 12.53 | 51.34 ± 11.25 | 39.42 ± 11.15 | 39.23 ± 13.18 | 60.25 ± 16.09 | 55.35 ± 12.82 |  |  |  |  |  |  | Joint swelling [1, 9]: 0.81 ± 0.12 mm; Left and right paw swelling [1, 9]: 0.79 ± 0.11 mm; Clinical score [1, 9]: 9.10 ± 1.27; Cell nuclei count [3, 10]: 9.104 ± 3.087; Neovascular clusters area [7, 11]: 0.116 ± 0.012 mm^2; Inhibition rate ([7]; 25 μg intravitreal): 47.42%*
7 | mPEG-SC10k-Arg-Gly-Ala-Asp-Arg-Ala-Gly-Gly-Gly-Gly-Arg-Gly-Asp ({mPEG‑SC 10 kDa}-RGADRAGGGGRGD) [mPEG-SC10k-HM-1] | 60.53 ± 17.16 | 52.88 ± 13.66 | 57.18 ± 12.35 | 45.49 ± 11.89 | 46.23 ± 13.05 | 65.29 ± 19.06 | 61.35 ± 16.88 |  |  |  |  |  |  | Joint swelling [1, 15]: 0.79 ± 0.13 mm; Left and right paw swelling [1, 15]: 0.77 ± 0.12 mm; Clinical score [1, 15]: 9.06 ± 1.24; Cell nuclei count ([3]; 50 μg intravitreal for 1 week from day 7, vascular endothelial nuclei per slice): 8.528 ± 3.109; Neovascular clusters area ([7]; 50 μg intravitreal injection on day 13): 0.096 ± 0.008 mm^2; Inhibition rate ([7]; 50 μg intravitreal): 56.56%**; inhibition rate of retinal neovascular clusters ([7]; OIR mice, 50 μg intravitreal injection, evaluated day 17): 56.56%
